Reference: PubChem BioAssay AID1963872 (Molecular Pharmacology Branch, DTP, NCI, 2024)

System: KRAS patient-derived spheroids with HUVEC/MSC, viability
Assay: Anticancer human tumor 519858-162-T-J1-PDC patient-derived colon adenocarcinoma cell line growth inhibition [KRAS2]
Conditions: for IC50: curve of first compound; for viability, T/C: stronger effect = lower value
In short: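 Combination screen of spheroid viability in tumor-cell co-cultures with endothelial (HUVEC) and mesenchymal stem cell stroma. Each agent was tested in half-log dilutions, topping at clinical Cmax or at 10 microM without a known Cmax.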

[1] = second compound 0.1 µM, first compound 0.000316 µM
[2] = second compound 0.1 µM, first compound 0.001 µM
[3] = second compound 0.1 µM, first compound 0.00316 µM
[4] = second compound 0.1 µM, first compound 0.01 µM
[5] = second compound 0.1 µM, first compound 0.0316 µM
[6] = second compound 0.316 µM, first compound 0.000316 µM
[7] = second compound 0.316 µM, first compound 0.001 µM
[8] = second compound 0.316 µM, first compound 0.00316 µM
[9] = second compound 0.316 µM, first compound 0.01 µM
[10] = second compound 0.316 µM, first compound 0.0316 µM
[11] = second compound 1 µM, first compound 0.000316 µM
[12] = second compound 1 µM, first compound 0.001 µM
[13] = second compound 1 µM, first compound 0.00316 µM
[14] = second compound 1 µM, first compound 0.01 µM
[15] = second compound 1 µM, first compound 0.0316 µM
[16] = second compound 3.16 µM, first compound 0.000316 µM
[17] = second compound 3.16 µM, first compound 0.001 µM
[18] = second compound 3.16 µM, first compound 0.00316 µM
[19] = second compound 3.16 µM, first compound 0.01 µM
[20] = second compound 3.16 µM, first compound 0.0316 µM
[21] = second compound 10 µM, first compound 0.000316 µM
[22] = second compound 10 µM, first compound 0.001 µM
[23] = second compound 10 µM, first compound 0.00316 µM
[24] = second compound 10 µM, first compound 0.01 µM
[25] = second compound 10 µM, first compound 0.0316 µM
[26] = second compound 0.1 µM, first compound 0.1 µM
[27] = second compound 0.316 µM, first compound 0.1 µM
[28] = second compound 1 µM, first compound 0.1 µM
[29] = second compound 3.16 µM, first compound 0.1 µM
[30] = second compound 10 µM, first compound 0.1 µM
[31] = second compound 0.1 µM, first compound 0.316 µM
[32] = second compound 0.1 µM, first compound 1 µM
[33] = second compound 0.1 µM, first compound 3.16 µM
[34] = second compound 0.1 µM, first compound 10 µM
[35] = second compound 0.316 µM, first compound 0.316 µM
[36] = second compound 0.316 µM, first compound 1 µM
[37] = second compound 0.316 µM, first compound 3.16 µM
[38] = second compound 0.316 µM, first compound 10 µM
[39] = second compound 1 µM, first compound 0.316 µM
[40] = second compound 1 µM, first compound 1 µM
[41] = second compound 1 µM, first compound 3.16 µM
[42] = second compound 1 µM, first compound 10 µM
[43] = second compound 3.16 µM, first compound 0.316 µM
[44] = second compound 3.16 µM, first compound 1 µM
[45] = second compound 3.16 µM, first compound 3.16 µM
[46] = second compound 3.16 µM, first compound 10 µM
[47] = second compound 10 µM, first compound 0.316 µM
[48] = second compound 10 µM, first compound 1 µM
[49] = second compound 10 µM, first compound 3.16 µM
[50] = second compound 10 µM, first compound 10 µM
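Also: compound exposure lasted seven days before readout.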
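For viability, T/C in this document: 100% = DMSO vehicle control viability.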

Structure (SMILES): CC(=O)Nc1cccc(-n2c(=O)n(C3CC3)c(=O)c3c(Nc4ccc(I)cc4F)n(C)c(=O)c(C)c32)c1 + CNCc1ccccc1-c1csc(C(C)Nc2nc(C)nc3cc(OC)c(OC)cc23)c1
- IC50 (second compound 0.1 µM): 5.36 nM
- IC50 (second compound 0.316 µM): 1.38 nM
- IC50 (second compound 1 µM): 0.356 nM
- IC50 (second compound 3.16 µM): < 0.1 nM
- IC50 (second compound 10 µM): < 0.1 nM
- viability, T/C (second compound 0.1 µM, first compound 0.0001 µM): 70.2%
- viability, T/C [1]: 73.4%
- viability, T/C [2]: 60.1%
- viability, T/C [3]: 67.2%
- viability, T/C [4]: 29.7%
- viability, T/C [5]: 13.9%
- viability, T/C (second compound 0.316 µM, first compound 0.0001 µM): 50.7%
- viability, T/C [6]: 79.1%
- viability, T/C [7]: 47.9%
- viability, T/C [8]: 36.4%
- viability, T/C [9]: 30.9%
- viability, T/C [10]: 12.2%
- viability, T/C (second compound 1 µM, first compound 0.0001 µM): 63.3%
- viability, T/C [11]: 50.7%
- viability, T/C [12]: 37.9%
- viability, T/C [13]: 30.6%
- viability, T/C [14]: 16.5%
- viability, T/C [15]: 6.33%
- viability, T/C (second compound 3.16 µM, first compound 0.0001 µM): 41%
- viability, T/C [16]: 30.4%
- viability, T/C [17]: 17.7%
- viability, T/C [18]: 3.54%
- viability, T/C [19]: 1.47%
- viability, T/C [20]: 1.15%
- viability, T/C (second compound 10 µM, first compound 0.0001 µM): 0.28%
- viability, T/C [21]: 0.38%
- viability, T/C [22]: 0.25%
- viability, T/C [23]: 0.25%
- viability, T/C [24]: 0.22%
- viability, T/C [25]: 0.31%

Structure (SMILES): CC(C)n1nc(-c2ccc3oc(N)nc3c2)c2c(N)ncnc21 + CNCc1ccccc1-c1csc(C(C)Nc2nc(C)nc3cc(OC)c(OC)cc23)c1
- IC50 (second compound 0.1 µM): > 100 nM
- IC50 (second compound 0.316 µM): > 100 nM
- IC50 (second compound 1 µM): > 100 nM
- IC50 (second compound 3.16 µM): 5.41 nM
- IC50 (second compound 10 µM): < 0.316 nM
- viability, T/C [1]: 80.2%
- viability, T/C [2]: 70.6%
- viability, T/C [3]: 77.7%
- viability, T/C [4]: 72.5%
- viability, T/C [5]: 67%
- viability, T/C [26]: 53.5%
- viability, T/C [6]: 76.5%
- viability, T/C [7]: 68.5%
- viability, T/C [8]: 69.5%
- viability, T/C [9]: 83.2%
- viability, T/C [10]: 66.8%
- viability, T/C [27]: 62.5%
- viability, T/C [11]: 91.9%
- viability, T/C [12]: 69.1%
- viability, T/C [13]: 78.2%
- viability, T/C [14]: 42.7%
- viability, T/C [15]: 73.1%
- viability, T/C [28]: 86.3%
- viability, T/C [16]: 68%
- viability, T/C [17]: 65%
- viability, T/C [18]: 55.1%
- viability, T/C [19]: 39.8%
- viability, T/C [20]: 49.6%
- viability, T/C [29]: 43.1%
- viability, T/C [21]: 0.52%
- viability, T/C [22]: 0.58%
- viability, T/C [23]: 0.46%
- viability, T/C [24]: 0.32%
- viability, T/C [25]: 0.36%
- viability, T/C [30]: 0.73%

Structure (SMILES): COc1cc(Nc2ncc3c(n2)-c2ccc(Cl)cc2C(c2c(F)cccc2OC)=NC3)ccc1C(=O)O + CNCc1ccccc1-c1csc(C(C)Nc2nc(C)nc3cc(OC)c(OC)cc23)c1
- IC50 (second compound 0.1 µM): > 10000 nM
- IC50 (second compound 0.316 µM): > 10000 nM
- IC50 (second compound 1 µM): > 10000 nM
- IC50 (second compound 3.16 µM): > 10000 nM
- IC50 (second compound 10 µM): < 31.6 nM
- viability, T/C [5]: 95.9%
- viability, T/C [26]: 93.5%
- viability, T/C [31]: 79.1%
- viability, T/C [32]: 85%
- viability, T/C [33]: 88.4%
- viability, T/C [34]: 103%
- viability, T/C [10]: 96.5%
- viability, T/C [27]: 91.5%
- viability, T/C [35]: 56.2%
- viability, T/C [36]: 78.6%
- viability, T/C [37]: 87.6%
- viability, T/C [38]: 71.2%
- viability, T/C [15]: 77.2%
- viability, T/C [28]: 78.2%
- viability, T/C [39]: 73%
- viability, T/C [40]: 70%
- viability, T/C [41]: 71.2%
- viability, T/C [42]: 62.1%
- viability, T/C [20]: 58.2%
- viability, T/C [29]: 54.6%
- viability, T/C [43]: 60.9%
- viability, T/C [44]: 65.6%
- viability, T/C [45]: 74.2%
- viability, T/C [46]: 67.4%
- viability, T/C [25]: 0.42%
- viability, T/C [30]: 0.37%
- viability, T/C [47]: 0.36%
- viability, T/C [48]: 0.31%
- viability, T/C [49]: 0.37%
- viability, T/C [50]: 0.84%

Structure (SMILES): COc1cc2nccc(Oc3ccc(NC(=O)C4(C(=O)Nc5ccc(F)cc5)CC4)cc3)c2cc1OC + CNCc1ccccc1-c1csc(C(C)Nc2nc(C)nc3cc(OC)c(OC)cc23)c1
- IC50 (second compound 0.1 µM): > 10000 nM
- IC50 (second compound 0.316 µM): > 10000 nM
- IC50 (second compound 1 µM): > 10000 nM
- IC50 (second compound 3.16 µM): 3460 nM
- IC50 (second compound 10 µM): < 31.6 nM
- viability, T/C [5]: 92.8%
- viability, T/C [26]: 93.2%
- viability, T/C [31]: 81.7%
- viability, T/C [32]: 94%
- viability, T/C [33]: 107%
- viability, T/C [34]: 146%
- viability, T/C [10]: 91.4%
- viability, T/C [27]: 96.5%
- viability, T/C [35]: 88%
- viability, T/C [36]: 90.1%
- viability, T/C [37]: 98.1%
- viability, T/C [38]: 132%
- viability, T/C [15]: 67.1%
- viability, T/C [28]: 81.8%
- viability, T/C [39]: 61.6%
- viability, T/C [40]: 50.1%
- viability, T/C [41]: 106%
- viability, T/C [42]: 100%
- viability, T/C [20]: 39.9%
- viability, T/C [29]: 55.6%
- viability, T/C [43]: 44.5%
- viability, T/C [44]: 38.1%
- viability, T/C [45]: 95%
- viability, T/C [46]: 0.54%
- viability, T/C [25]: 1.01%
- viability, T/C [30]: 0.42%
- viability, T/C [47]: 0.68%
- viability, T/C [48]: 1.44%
- viability, T/C [49]: 0.37%
- viability, T/C [50]: 0.36%
